According to US20230250060A1 (IFM Due, Inc., priority 2022, published 2023):

Biological target: T1, STING (Homo sapiens, UniProt Q86WV6, G230A/H232R/R293Q/R71H)
T1 construct: host or cells: THP1-Dual KO-IFNAR2 cells
Experiment: STING reporter assay (luciferase) in THP1-Dual KO-IFNAR2 cells stimulated with 2′3′cGAMP
Format: cell-based
Conditions: 2′3′cGAMP 15 μM final, 24 h, luciferase reporter activity, read-out: Pharmaron, THP1_IFNAR2 STING 24 h Luci Normalized: GeoMean EC50
Experimental: STING pathway activation by the compounds described herein was measured using TTIP1-Dual™ cells (KO-IFNAR2).
TTIP1-Dual™ KO-IFNAR2 Cells (obtained from invivogen) were maintained in RPMI, 10% FCS, 5 ml P/S, 2 mM L-glut, 10 mM Hepes, and 1 mM sodium pyruvate. Compounds were spotted in empty 384 well tissue culture plates (Greiner 781182) by Echo for a final concentration of 0.0017-100 μM. Cells were plated into the TC plates at 40 μL per well, 2×10E6 cells/mL. For activation with STING ligand, 2′3′cGAMP (MW 718.38, obtained from Invivogen), was prepared in Optimem media.
The following solutions were prepared for each 1×384 plate: • Solution A: 2 mL Optimem with one of the following stimuli: • […] • Solution B: 2 mL Optimem with […] Lipofectamine 2000→Incubate 5 min at RT
2 mL of solution A and 2 ml Solution B was mixed and incubated for 20 min at room temperature (RT). 20 μL of transfection solution (A+B) was added on top of the plated cells, with a final 2′3′cGAMP concentration of 15 μM. The plates were then centrifuged immediately at 340 g for 1 minute, after which they were incubated at 37° C., 5% CO2, >98% humidity for 24 h. Luciferase reporter activity was then measured. EC50 values were calculated by using standard methods known in the art.
Luciferase reporter assay: 10 μL of supernatant from the assay was transferred to white 384-plate with flat bottom and squared wells. One pouch of QUANTI-Luc™ Plus was dissolved in 25 mL of water. 100 μL of QLC Stabilizer per 25 mL of QUANTI-Luc™ Plus solution was added. 50 μL of QUANTI-Luc™ Plus/QLC solution per well was then added. Luminescence was measured on a Platereader (e.g., Spectramax I3X (Molecular Devices GF3637001)).
Luciferase reporter activity was then measured. EC50 values were calculated by using standard methods known in the art.

T1 sequence (Q86WV6 whole entry R71H/G230A/H232R/R293Q): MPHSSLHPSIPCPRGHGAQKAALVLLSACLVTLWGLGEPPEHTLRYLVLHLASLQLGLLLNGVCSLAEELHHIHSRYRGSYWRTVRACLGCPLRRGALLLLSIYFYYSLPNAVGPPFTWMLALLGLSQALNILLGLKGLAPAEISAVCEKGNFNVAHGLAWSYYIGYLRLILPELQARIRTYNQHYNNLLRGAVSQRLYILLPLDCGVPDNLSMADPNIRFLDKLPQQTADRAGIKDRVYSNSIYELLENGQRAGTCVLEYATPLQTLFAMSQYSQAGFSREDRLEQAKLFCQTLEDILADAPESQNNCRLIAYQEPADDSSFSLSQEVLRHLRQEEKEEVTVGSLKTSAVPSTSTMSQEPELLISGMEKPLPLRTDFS

| SMILES | EC50 [µM] |
| --- | --- |
| O=C(Nc1c[nH]c2ccc(OCc3ccc(C(F)(F)F)cc3)cc12)c1ccccn1 [Compound 149, N-(5-((4-(trifluoromethyl)benzyl)oxy)-1H-indol-3-yl)picolinamide] | 5 to 100 |
| O=C(Nc1c[nH]c2ccc(OCc3ccc(C(F)(F)F)cc3)cc12)c1ncccc1F [Compound 152, 3-fluoro-N-(5-((4-(trifluoromethyl)benzyl)oxy)-1H-indol-3-yl)picolinamide] | 0.2 to 1 |
| Cc1noc(C)c1C(=O)Nc1c[nH]c2ccc(OCc3ccc(C(F)(F)F)cc3)cc12 [Compound 153, 3,5-dimethyl-N-(5-((4-(trifluoromethyl)benzyl)oxy)-1H-indol-3-yl)isoxazole-4-carboxamide] | 0.2 to 1 |
| O=C(Nc1c[nH]c2ccc(OCc3ccc(C(F)(F)F)cc3)cc12)c1cncs1 [Compound 154, N-(5-((4-(trifluoromethyl)benzyl)oxy)-1H-indol-3-yl)thiazole-5-carboxamide] | 0.2 to 1 |
| O=C(Nc1c[nH]c2ccc(O[C@H]3C[C@@H](c4ccc(C(F)(F)F)cc4)C3)cc12)C1CC2(CCC2)C1 [Compound 155, N-(5-((1s,3s)-3-(4-(trifluoromethyl)phenyl)cyclobutoxy)-1H-indol-3-yl)spiro[3.3]heptane-2-carboxamide] | 0.2 to 1 |
| O=C(Nc1c[nH]c2ccc(O[C@H]3C[C@@H](c4ccc(C(F)(F)F)cc4)C3)cc12)C1CC2(CC2)C1 [Compound 156, N-(5-((1s,3s)-3-(4-(trifluoromethyl)phenyl)cyclobutoxy)-1H-indol-3-yl)spiro[2.3]hexane-5-carboxamide] | 0.2 to 1 |
| O=C(Nc1c[nH]c2ccc(OCC[C@@H]3C[C@@H]4CN(CC(F)(F)F)C[C@@H]4C3)cc12)C1CC2(CCC2)C1 [Compound 157, N-(5-(2-((3aR,5r,6aS)-2-(2,2,2-trifluoroethyl)octahydrocyclopenta[c]pyrrol-5-yl)ethoxy)-1H-indol-3-yl)spiro[3.3]hexane-2-carboxamide] | 0.2 to 1 |
| O=C(Nc1c[nH]c2ccc(OCC[C@@H]3C[C@@H]4CN(CC(F)(F)F)C[C@@H]4C3)cc12)C1CC12CC2 (stereo partly drawn) [Compound 158, N-(5-(2-((3aR,5r,6aS)-2-(2,2,2-trifluoroethyl)octahydrocyclopenta[c]pyrrol-5-yl)ethoxy)-1H-indol-3-yl)spiro[2.2]pentane-1-carboxamide] | 1 to 5 |
| Cc1oncc1C(=O)Nc1c[nH]c2ccc(OCC[C@@H]3C[C@@H]4CN(CC(F)(F)F)C[C@@H]4C3)cc12 [Compound 159, 5-methyl-N-(5-(2-((3aR,5r,6aS)-2-(2,2,2-trifluoroethyl)octahydrocyclopenta[c]pyrrol-5-yl)ethoxy)-1H-indol-3-yl)isoxazole-4-carboxamide] | 5 to 100 |

Second part, the compound after the results:

| EC50 [µM] | SMILES |
| --- | --- |
| 0.04 to 0.2 | Cn1ccnc1C(=O)Nc1c[nH]c2ccc(OCCc3ccc(C(F)(F)F)cc3)cc12 [Compound 146, 1-methyl-N-(5-(4-(trifluoromethyl)phenethoxy)-1H-indol-3-yl)-1H-imidazole-2-carboxamide] |
| 0.2 to 1 | O=C(Nc1c[nH]c2ccc(OCc3ccc(C(F)(F)F)cc3)cc12)c1ccncc1 [Compound 147, N-(5-((4-(trifluoromethyl)benzyl)oxy)-1H-indol-3-yl)isonicotinamide] |
| 0.2 to 1 | O=C(Nc1c[nH]c2ccc(OCc3ccc(C(F)(F)F)cc3)cc12)c1cccnc1 [Compound 148, N-(5-((4-(trifluoromethyl)benzyl)oxy)-1H-indol-3-yl)nicotinamide] |
| 0.2 to 1 | O=C(CC1CC1)Nc1c[nH]c2ccc(OCc3ccc(C(F)(F)F)cc3)cc12 [Compound 150, 2-cyclopropyl-N-(5-((4-(trifluoromethyl)benzyl)oxy)-1H-indol-3-yl)acetamide] |
| 0.2 to 1 | O=C(Nc1c[nH]c2ccc(OCc3ccc(C(F)(F)F)cc3)cc12)C1CC2(CCC2)C1 [Compound 151, N-(5-((4-(trifluoromethyl)benzyl)oxy)-1H-indol-3-yl)spiro[3.3]heptane-2-carboxamide] |
